Literature values as cited in patent publication US8986418B1, “Method and system for agricultural fertigation” (priority 2008, dated 2015).
Where two headings read alike, the source gives them in different places.

Solubility with anion CO3^−2 | Solubility with anion CO3^−2 (listed as Fe^+3) | Solubility with anion Cl | Solubility with anion HCO3^− | Solubility with anion HCO3^− (listed as Fe^+3) | Solubility with anion NO3^− | Solubility with anion OH^− | Solubility with anion OH^− (listed as Fe^+3) | Solubility with anion PO4^−3 | Solubility with anion SO4^−2 | Solubility with anion S^−2 | SMILES
I (I means insoluble (<20 ppm)) |  | S (S means soluble (over 5,000 ppm)) |  |  | S (S means soluble (over 5,000 ppm)) | I (I means insoluble (<20 ppm)) |  | I (I means insoluble (<20 ppm)) | S (S means soluble (over 5,000 ppm)) | I (I means insoluble (<20 ppm)) | [Mn+2] [Mn^+2]
CO2 |  | S (S means soluble (over 5,000 ppm)) | S (S means soluble (over 5,000 ppm)) |  | S (S means soluble (over 5,000 ppm)) |  |  | S (S means soluble (over 5,000 ppm)) | S (S means soluble (over 5,000 ppm)) |  | [H+] [H^+]
S (S means soluble (over 5,000 ppm)) |  | S (S means soluble (over 5,000 ppm)) | S (S means soluble (over 5,000 ppm)) |  | S (S means soluble (over 5,000 ppm)) | S (S means soluble (over 5,000 ppm)) |  | S (S means soluble (over 5,000 ppm)) | S (S means soluble (over 5,000 ppm)) | S (S means soluble (over 5,000 ppm)) | [K+] [K^+]

SMILES | Solubility with anion CO3^−2 | Solubility with anion CO3^−2 (listed as Fe^+3) | Solubility with anion Cl | Solubility with anion HCO3^− | Solubility with anion HCO3^− (listed as Fe^+3) | Solubility with anion NO3^− | Solubility with anion OH^− | Solubility with anion OH^− (listed as Fe^+3) | Solubility with anion PO4^−3 | Solubility with anion SO4^−2 | Solubility with anion S^−2
[Fe+2] [Fe^+2] | VSS (VSS means very slightly soluble (20-2,000 ppm)) | I (I means insoluble (<20 ppm)) | S (S means soluble (over 5,000 ppm)) | SS (SS means slightly soluble (2,000 to 5,000 ppm)) | I (I means insoluble (<20 ppm)) | S (S means soluble (over 5,000 ppm)) | VSS (VSS means very slightly soluble (20-2,000 ppm)) | I (I means insoluble (<20 ppm)) | I (I means insoluble (<20 ppm)) | S (S means soluble (over 5,000 ppm)) | I (I means insoluble (<20 ppm))
[Mg+2] [Mg^+2] | VSS (VSS means very slightly soluble (20-2,000 ppm)) |  | S (S means soluble (over 5,000 ppm)) | S (S means soluble (over 5,000 ppm)) |  | S (S means soluble (over 5,000 ppm)) | I (I means insoluble (<20 ppm)) |  | I (I means insoluble (<20 ppm)) | S (S means soluble (over 5,000 ppm)) | 
